{"source": "ChEMBL document CHEMBL5143711", "about": "“Glenthmycins A-M: Macrocyclic Spirotetronate Polyketide Antibacterials from the Australian Pasture Plant-Derived Streptomyces sp. CMB-PB041” (J Nat Prod, 2022)", "assay_type_in_all_cases": "functional, organism-based", "key": {"[1]": {"system": "Staphylococcus aureus", "experiment": "Antibacterial activity against Staphylococcus aureus ATCC 25923 incubated for 16 to 24 hrs in presence of rifampin by broth microdilution based spectrophotometric analysis"}, "[2]": {"system": "Enterococcus faecalis", "experiment": "Antibacterial activity against Enterococcus faecalis incubated for 16 to 24 hrs in presence of rifampicin by broth microdilution based spectrophotometric analysis"}, "[3]": {"system": "Staphylococcus aureus", "experiment": "Antibacterial activity against Staphylococcus aureus ATCC 25923 incubated for 16 to 24 hrs in presence of ampicillin by broth microdilution based spectrophotometric analysis"}, "[4]": {"system": "Enterococcus faecalis", "experiment": "Antibacterial activity against Enterococcus faecalis incubated for 16 to 24 hrs in presence of ampicillin by broth microdilution based spectrophotometric analysis"}}, "data": [{"smiles": "CC1(C)S[C@@H]2[C@H](NC(=O)[C@H](N)c3ccccc3)C(=O)N2[C@H]1C(=O)O", "note": "[AMPICILLIN]", "values": [{"measurement": "IC50", "setting": "[1]", "result": "< 10", "unit": "µM"}, {"measurement": "IC50", "setting": "[2]", "result": "< 10", "unit": "µM"}]}, {"smiles": "CO[C@H]1/C=C/O[C@@]2(C)Oc3c(C)c(O)c4c(O)c(c(/C=N/N5CCN(C)CC5)c(O)c4c3C2=O)NC(=O)/C(C)=C\\C=C\\[C@H](C)[C@H](O)[C@@H](C)[C@@H](O)[C@@H](C)[C@H](OC(C)=O)[C@@H]1C", "note": "[RIFAMPIN]", "values": [{"measurement": "IC50", "setting": "[3]", "result": "< 10", "unit": "µM"}, {"measurement": "IC50", "setting": "[4]", "result": "< 10", "unit": "µM"}]}]}
